Source: ChEMBL document CHEMBL1134014, “Synthesis and biological evaluation of a sialyl Lewis X mimic with significantly improved E-selectin inhibition” (Bioorg Med Chem Lett, 2001)

Columns and labels:
[1] = molecular target: T1, E-selectin (Homo sapiens) (UniProt P16581); assay: Relative inhibitory concentration against Selectin E to that of sLex in a static cell free ligand binding assay
T1 sequence (whole entry): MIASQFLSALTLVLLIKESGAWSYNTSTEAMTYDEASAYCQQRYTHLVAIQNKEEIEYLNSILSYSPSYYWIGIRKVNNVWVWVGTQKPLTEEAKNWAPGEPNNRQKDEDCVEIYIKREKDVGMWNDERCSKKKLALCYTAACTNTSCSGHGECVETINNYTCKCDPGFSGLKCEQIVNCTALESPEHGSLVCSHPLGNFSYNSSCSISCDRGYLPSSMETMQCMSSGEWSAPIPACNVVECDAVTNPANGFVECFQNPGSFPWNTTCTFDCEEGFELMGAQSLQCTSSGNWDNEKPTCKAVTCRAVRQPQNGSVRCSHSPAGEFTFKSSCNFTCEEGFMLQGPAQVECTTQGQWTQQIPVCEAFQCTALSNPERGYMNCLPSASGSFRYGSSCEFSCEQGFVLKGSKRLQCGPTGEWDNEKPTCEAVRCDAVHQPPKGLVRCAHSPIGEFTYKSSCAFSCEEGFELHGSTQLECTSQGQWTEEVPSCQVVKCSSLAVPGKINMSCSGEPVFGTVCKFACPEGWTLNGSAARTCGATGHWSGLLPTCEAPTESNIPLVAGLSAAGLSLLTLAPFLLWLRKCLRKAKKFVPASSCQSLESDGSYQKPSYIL

[2] = molecular target: T1, E-selectin (Homo sapiens); conditions: 200uM
Description: Percent inhibition of Selectin E by the compound at a dose of 200uM

E-selectin = molecular target: T2, E-selectin (Homo sapiens, UniProt P16581); assay: Inhibitory concentration against Selectin E in a static cell free ligand binding assay under equilibrium conditions.
T2 sequence (P16581 whole entry): T1 sequence (whole entry)

[3] = molecular target: T1, E-selectin (Homo sapiens); conditions: 10uM
Description: Percent inhibition of Selectin E by the compound at a dose of 10uM

[4] = molecular target: T1, E-selectin (Homo sapiens); conditions: 50uM
Description: Percent inhibition of Selectin E by the compound at a dose of 50uM

SMILES: COC(=O)CCCCCCCCOC1O[C@@H](O)[C@@H](O[C@@H]2O[C@@H](CO)[C@H](O)[C@H](O[C@]3(C(=O)O)C[C@@H](O)[C@@H](NC(C)=O)[C@H]([C@@H](O)[C@H](O)CO)O3)[C@@H]2O)[C@H](O[C@@H]2O[C@@H](C)[C@@H](O)[C@H](O)[C@@H]2O)[C@@H]1NC(=O)c1ccc(OC)c(OC)c1 (some centres undefined)
- Relative IC50 [1]: 0.164

SMILES: C[C@@H]1O[C@@H](O[C@@H]2CCCC[C@H]2O[C@@H]2O[C@@H](CO)[C@H](O)[C@H](OC(CC3CCCCC3)C(=O)O)[C@@H]2O)[C@@H](O)[C@@H](O)[C@@H]1O (single isomer, unassigned)
- Relative IC50 [1]: 0.115

SMILES: C[C@@H]1O[C@@H](O[C@@H]2[C@H](CO)OCC[C@H]2O[C@@H]2O[C@@H](CO)[C@H](O)[C@H](OC(CC3CCCCC3)C(=O)O)[C@@H]2O)[C@@H](O)[C@@H](O)[C@@H]1O (single isomer, unassigned)
- Relative IC50 [1]: 0.031

SMILES: COC(=O)CCCCCCCCO[C@@H]1O[C@@H](CO)[C@@H](O[C@@H]2O[C@@H](CO)[C@H](O)[C@H](O[C@@H](CC3CCCCC3)C(=O)O)[C@@H]2O)[C@H](O[C@@H]2O[C@@H](C)[C@@H](O)[C@H](O)[C@@H]2O)[C@@H]1NC(=O)c1ccc(OC)c(OC)c1
- Relative IC50 [1]: 0.03
- inhibition [2]: 97%
- IC50 (E-selectin): 1500 µM
- inhibition [3]: 54%
- inhibition [4]: 93%

SMILES: COC(=O)CCCCCCCCO[C@@H]1O[C@@H](CO)[C@@H](O[C@@H]2O[C@@H](CO)[C@H](O)[C@H](O[C@]3(C(=O)O)C[C@@H](O)[C@@H](NC(C)=O)[C@H]([C@@H](O)[C@H](O)CO)O3)[C@@H]2O)[C@H](O[C@@H]2O[C@@H](C)[C@@H](O)[C@H](O)[C@@H]2O)[C@@H]1NC(C)=O
- Relative IC50 [1]: 1
